Experimental data: US20240002424A1, “HEXOSAMINE COMPOUNDS AND METHODS THEREOF” (National Institute of Immunology, priority 2021, published 2024)

How the values were obtained:
Type in all cases: cell-based, human
Jurkat cells = test: NeuAz expression on the cell surface by SPAAC with DBCO-Cy5 and flow cytometry, competition with Ac4ManNAz (1c); details: for NeuAz expression / DBCO-Cy5 signal, compound alone: 50 μM alone; for extent of suppression of NeuAz expression by 1c: 50 μM co-incubated with 1c, study parallel to GalNAz; for NeuAz expression, % of controls: 50 μM with 1c 50 μM, simultaneous addition; for reduction of NeuAz, simultaneous addition: analogue 10 μM and 1c 50 μM added simultaneously
Experimental: FIG. 5 illustrates competitive processing by compounds of the present invention (ManNAc compounds). ManNAc compounds competitively reduce the expression of N-azidoacetyl-D-neuraminic acid (NeuAz)-carrying sialoglycans through the metabolic processing of Ac4ManNAz. Jurkat (human T-lymphoma) cells were incubated with Ac4ManNAz (Z) (50 μM) alone, co-incubated with GL-2, GL-3, MA-2, or MA-3 (at various concentrations such as 10,
25, and 50 μM) for 24 h. Expression of N-azidoacetyl-D-neuraminic acid (NeuAz) on the cell surface sialoglycans was estimated using strain-promoted azide-alkyne cycloaddition (SPAAC) with DBCO-Cy5 and analyzed by flow cytometry. […] GL-2 was used for comparative study and the structure of this compound is as below.
Jurkat cells (3.0×10^5 cells/mL; 2.5 mL per well in 6-well plates) in complete medium were treated with either vehicle (D) or Compound 1c; Untreated Jurkat cells, without addition of vehicle, were also included as additional controls. Cells were harvested at 48 h, washed thrice with PBS (3×0.5 mL) (3000×g, 2.0 min). Prior to the last wash cells were counted and were aliquoted to 1.0×10^6 cells per sample in 1.5 mL microcentrifuge tubes and centrifuged. The cells were gently resuspended in PBS ([…]) and treated with DBCO-Cy5 ([…]) and incubated at 37° C. (on a Torrey-Pines dry heating bath with mild shaking). After one hour, the cells were washed using FSB (0.5 mL, 3000×g, 2.0 min, room temperature), resuspended in PBS (250 mL), treated with PI (2.5 mg/mL), and analyzed using BD FACSCanto and FACSDiva Version 6.1.3. The cells were gated for PI-negative population for 10,000 events. Two replicate samples were prepared for each conditions and each sample was counted twice.
Estimation of NeuAz expression by 1c in the presence of peracetylated ManNAc analogues: Jurkat cells (3.0×10^5 cells/mL in 3.0 mL per well in 6-well plates) were incubated with (i) D, (ii) 1a, 1b, 1c, or 1d alone (50 mM) or (iii) 1a, 1b, or 1d (50 mM) in combination with 1c (50 mM). After 24 h, cells were harvested, washed using FSB, aliquoted to 5.0×10^5 cells per sample, and processed as mentioned above for estimation of NeuAz expression using DBCO-Cy5 ([…]). Experiments using HL-60 cells were performed using the same procedure. […]
Effect of GlcNAc and ManNAc analogues on NeuAz expression: Jurkat cells were treated with 1a, 1b, 2a, or 2b (10, 25, and 50 mM for each analogue) in combination with 1c (50 mM). Cells treated with 1c (50 mM) alone were considered as a reference. After 24 h, cells were harvested, processed, labelled with DBCO-Cy5 ([…]), and analysed by flow cytometry as mentioned above.
In order to evaluate the metabolism, Jurkat (human T-lymphoma) cells were selected and incubated with ManNAc analogues either alone (50 μM) or in combination with 1c (50 μM) for 48 h. Expression of NeuAz on cell surface was estimated by flow cytometry through the copper-free bio-orthogonal strain-promoted azide-alkyne cycloaddition (SPAAC) reaction using dibenzocyclooctyne-Cy5 (DBCO-Cy5). The conditions for click reaction were optimized for various concentrations of DBCO-Cy5 and time course of SPAAC reaction in Jurkat cells. Based on the optimization results, incubation time of 30 min at 37° C. for 5.0×10^5 cells (pre-incubated with 1c for 48 h) with 20 μM of DBCO-Cy5 in 100 μL total volume for experiments with ManNAc analogues was chosen. […] In order to test the dose-dependency of this inhibitory effect on NeuAz expression and to establish competitive metabolic processing, Jurkat cells were first treated with either 1a or 1b (0-50 μM) followed by addition of 1c (50 μM) at 12 h and estimation of NeuAz at 48 h. As expected, the suppression of NeuAz expression was substantially higher when added with a 12 h delay compared to simultaneous addition, in a dose-dependent manner. […] By contrast simultaneous addition resulted only in a 10% reduction of NeuAz for both 1a and 1b (FIG. 6C and FIG. 7B).

HL-60 cells [1] = test: Binding of mouse E-selectin-Fc chimera (mCD62E) to cells by flow cytometry; details: 50 μM, 72 h
Experimental: Effect of HexNAc analogues on the expression of E-selectin ligands: HL-60 cells (3.0×10^5 cells/mL in 2.5 mL complete medium in 6-well plates) were incubated with D, 1a, 1b, or 1d (50 mM), along with untreated controls. After 72 h, cells were harvested and washed with PBS (3×0.5 mL). Prior to the last wash, cells were counted and aliquoted into 5.0×10^5 cells per sample. Cells were stained with mCD62E-Fc chimera protein (10 mg/mL) in PBS (50 mL) at 4° C. After 1.0 h, cells were washed with PBS (2×0.5 mL) and stained with PEconjugated F(ab′)2 goat anti-human Fc in PBS (50 mL) at 4° C. After 1.0 h, cells were washed with PBS (2×0.5 mL) and resuspended in 0.85% saline (0.2 mL) containing Sytox Red (dilution 1:1000; stock concentration of 5.0 mM). Additionally, control samples of cells treated with only the secondary antibody were prepared. Two replicate samples were analyzed for each condition and each sample was counted twice by flow cytometry as mentioned above.

HL-60 cells [2] = test: Total and glycoside bound sialic acids by periodate-resorcinol assay; details: 100 μM, 48 h
Experimental: Total sialic acids were measured following reported procedures. HL-60 cells (3.0×10^5 cells/mL in 10 mL complete medium in 10 cm diameter Petri dishes) were incubated with D, 1a, 1b, 1c, 1d, 1e, 1f, 1g, 2a, or 2b (100 mM each), along with untreated (U) controls. After 48 h, cells were harvested, washed with PBS (3×5.0 mL; 3000×g, for 2.0 min), aliquoted to 2×10^6 cells per sample and resuspended in PBS (150 mL) in 1.5 mL microcentrifuge tubes. Cells were lyzed by three freeze-thaw cycles and the total lysates were subjected to periodate-resorcinol assay. Briefly, lysates (150 mL) were treated with 0.4 M aqueous periodic acid (6.67 mM) or (2.5 mL) and incubated either on ice for 15 min (for measurement of total sialic acids) or at 37° C. for 1.0 h (for measurement of glycoconjugate bound sialic acids). About 10 mL of reagent cocktail was prepared using 6% w/v of aqueous resorcinol (1.0 mL), 2.5 mM copper (II) sulfate (1.0 mL), 44% of concentrated hydrochloric acid (4.4 mL), and water (3.6 mL). The mixture was then treated with the reagent cocktail (250 mL per sample), boiled at 100° C. for 10 min, rapidly quenched in an ice-bath and treated with tert-butanol (250 mL). The contents were centrifuged and the supernatants were aliquoted (200 mL) into 96-well plates and the absorbance at 630 nm was measured. At least three replicates were prepared for each condition.

[3] = 50 μM co-incubated with 1c 50 μM, 48 h

Row | Structure (SMILES) | NeuAz expression / DBCO-Cy5 signal, compound alone (Jurkat cells; 48 h) | NeuAz expression (1c alone taken as 100%) (Jurkat cells; [3]) [%] | extent of suppression of NeuAz expression by 1c (Jurkat cells) [%] | NeuAz expression, % of controls (Jurkat cells; 24 h) [%] | NeuAz expression upon co-incubation with Ac4ManNAz (Jurkat cells; Ac4ManNAz (Z) 50 μM plus analogue at 10, 25, 50 μM, 24 h, listed as MA-2) | reduction of NeuAz, simultaneous addition (Jurkat cells) [%] | change in mCD62E binding with respect to untreated cells (in words) (HL-60 cells [1]) | decrease in glycoside bound sialic acid levels (HL-60 cells [2]) [%] | ratio of total sialic acids to glycoside bound sialic acids vs untreated cells (HL-60 cells [2]) | reduction of NeuAz expression (Jurkat cells; [3]) [%] | increase in glycoside bound sialic acid levels (HL-60 cells [2]) [%] | increase in total sialic acid levels vs untreated cells (HL-60 cells [2]) [fold] | increase in mCD62E (E-selectin-Fc) binding with respect to untreated cells (HL-60 cells [1]) [fold]
1 | CC(=O)OC[C@H]1O[C@H](OC(C)=O)[C@@H](NC(=O)C2CC2)[C@@H](OC(C)=O)[C@@H]1OC(C)=O [Compound 1a, 1,3,4,6-tetra-O-acetyl-2-cyclopropanoylamino-2-deoxy-α-D-mannopyranose] | negligible signals | 60 | 50 | 60 | reduced competitively in a dose-dependent manner | 10 | no significant change | ~10 | higher ratios of free sialic acid | – | – | – | –
2 | CC(=O)NC1C(OC(C)=O)OC(COC(C)=O)[C@@H](OC(C)=O)[C@@H]1OC(C)=O (stereo partly drawn) [Compound 1d, 1,3,4,6-tetra-O-acetyl-2-acetylamino-2-deoxy-α/β-D-mannopyranose] | negligible signals | 30 | – | – | – | – | no significant change | – | higher ratios of free sialic acid | 70 | ~10 | 2.0 | –
3 | CC(=O)OC[C@H]1OC(OC(C)=O)[C@@H](NC(=O)C2CCC2)[C@@H](OC(C)=O)[C@@H]1OC(C)=O (stereo partly drawn) [Compound 1b, (3S,4R,5S,6R)-6-(acetoxymethyl)-3-(cyclobutanecarboxamido)tetrahydro-2H-pyran-2,4,5-triyl triacetate] | negligible signals | 65 | 50 | 50 | – | 10 | – | ~10 | higher ratios of free sialic acid | – | – | – | 2.3
